Data taken from patent US8691864B2, “Agents useful for reducing amyloid precursor protein and treating dementia and methods of use thereof” (priority 2000, dated 2014).

Assays:
[1] = tested on: cholinesterase; assay type: biochemical
[2] = tested on: total Aβ peptide; assay: total Aβ ELISA in SK-N-SH conditioned medium; assay type: cell-based, human; details: for Aβ peptide levels: cymserine and analogs
Method: Total Aβ peptide levels in SH-SY-SY and SK-N-SH cultured samples were assayed by a sensitive ELISA (Suzuki et al., 1994). For total Aβ measurements in conditioned medium, the rabbit polyclonal antibody #3160 (1-40 residues of Aβ) was used as a capture antibody for all species of Aβ peptide (Aβ1-40 and Aβ1-42) while monoclonal antibody 4G8 (17-25 residues of Aβ) was used to detect Aβ peptide levels, and the values were expressed as the mean of six independent assays.
Likewise, (+)-phenserine reduced BAPP protein levels and total Aβ peptide levels at 16 hours (FIG. 5).

[3] = tested on: SK-N-SH cells; assay: LDH assay / cell number and viability, SK-N-SH cells; assay type: cell-based, human; details: for toxicity by cell number and viability (LDH measurement): cymserine and analogs
Text: Measurement of released lactate dehydrogenase (LDH) in the conditioned medium was undertaken as a marker of cell viability and integrity, as described previously (Lahiri et al., 1997 and 1998).
This was not associated with cellular dysfunction, as determined by measurement of LDH levels versus untreated controls (FIG. 4C).

[4] = tested on: βAPP; assay: βAPP levels in SK-N-SH cells (conditioned media and cell lysates), western blot; assay type: cell-based, human
Method: (§1) SK-N-SH neuroblastoma cells were cultured on 60 mm dishes at a concentration of 3×10^6 cells, and SH-SY-5Y neuroblastoma and U373 astrocytorna cell lines were plated in 100 mm dishes at a concentration of 3×10^5 cells. The cells were allowed to grow in complete medium ([…], 2 mM glutamine in DMEM) for 3 to 4 days until they reached 70% confluence. To start the experiment, spent medium was removed and replaced with fresh medium (SKNSH—4 ml of DMEM+0.5% FBS; U373—5 ml of DMEM+2.5% FBS) containing 0, 5, or 50 μM phenserine. The cells were incubated at 37° C., 5% CO2 for the specific times indicated. Different media and sera were purchased from Life Technologies (Gaithersberg, Md.).
(§2) At each time point, the spent medium was collected and stored at −70° C. for later analysis of secretory βAPP levels. The cells were washed twice with PBS, pH 7.4 and incubated on ice for 15 min for lysis with 100 μL of lysis buffer (20 mM HEPES, 2 mM EGTA, 50 mM (β-glycophosphate, 1 mM sodium orthovanadate, 1% Triton X-100, 10% glycerol) containing appropriate protease inhibitors (2 mM PMSF, 100 μg/mL aprotinin, 25 μM leupeptin and 20 μg/mL soybean trypsin inhibitor). Each lysate was microcentrifuged for 15 min at 14 000 rpm. Protein levels of the supernatant were analyzed by the Bradford protein assay (BioRad, Melville, N.Y.).
Fifteen μg of protein from each sample was mixed with the appropriate volume of 5× Laemmli buffer and boiled for 5 min at 100° C. The samples were loaded onto a 10% NuPAGE Bis-Tris gel in 1×NuPAGE MOPS SDS running buffer (NOVEX, San Diego, Calif.) and the proteins separated at 200 V for 45 min. The gels then were transferred onto nitrocellulose at 25 V for 1.5 h. The blots were blocked with 5% non-fat dry milk in 10 mM Tris, pH 8.0 containing 150 mM NaCl for 1 h and washed twice for 15 min in large volumes of TBST (10 mM Tris, pH 8.0, 150 mM NaCl and 0.05% Tween 20). Each blot was probed for 2 h with either 22C11 anti-βAPP-terminal antibody (Boehringer Mannheim, Indianapolis, Ind.), diluted to a concentration of 2.5 μg/mL or anti-activated ERK antibody (Promega, Madison, Wis.), diluted to a concentration of 25 ng/mL. The blots were washed twice for 15 min in TBST and placed in secondary antibody, anti-mouse IgG- or anti-rabbit IgG conjugated to horse radish peroxidase (Sigma, St. Louis, Mo.), for 30 min. Three final TBST washes of 20 min duration each were performed before the samples were detected by chemiluminescence and exposed to film, as per the manufacturer's instructions (Amersham Life Science Inc., Arlington Heights, Ill.). Additionally, all blots also were stained with Ponceau S (Sigma, St. Louis, Mo.) to determine equivalent loading of samples. Densitometric quantification of blots was undertaken by using a […] and NIH-IMAGE (version 4.1).
Western blots of conditioned media (FIG. 4A) and cell lysates (FIG. 4B) were probed; with a N-terminal directed anti-βAPP antibody.
3×10^6 SK-N-SH cells were plated on 60 mm dishes with DMEM containing 10% FBS. After 36 hours, cells were incubated with low serum medium for 1 hour. Thereafter, the medium was replaced with fresh low serum medium (0.5% FBS). […] The cells were incubated with and without phenserine for 16 hours. At the stated time (4, 8 and 16 hrs), 200 μl of medium was transferred from each dish for assessment of extracellular APP levels. At the end of experiments (16 hrs), the cells were lysed and collected for assessment of intracellular APP levels.
15 μL of medium samples and 15 μg of total protein from each lysed samples were loaded onto 10% trys-glycine gels, and the protein was separated at 150 V for 90 min. The gels were transferred onto polyvinylidene difluoride paper and probed with an affinity-purified anti-APP antibody (22C11), which recognizes the ectodomain of APP (residues 66-81). The APP signals were detected by chemiluminescence and exposed to film. The quantitation of the signals was determined by using a CD camera and NIH-IMAGE (version 4.0). […]

[5] = tested on: βAPP; assay: βAPP protein levels in SH-SY5Y cell lysates, western blot; assay type: cell-based, human; details: 5 μM, 0.5, 1, 2 and 4 hours
Method: as §1
as §2, with “N.Y.). […]” for “N.Y.).”

[6] = tested on: ERK½; assay: phosphorylated ERK in SH-SY5Y cells, western blot; assay type: cell-based, human; details: 5 μM, 0.5-4 hours
Method: Fifteen μg of protein from each sample was mixed with the appropriate volume of 5× Laemmli buffer and boiled for 5 min at 100° C. The samples were loaded onto a 10% NuPAGE Bis-Tris gel in 1×NuPAGE MOPS SDS running buffer (NOVEX, San Diego, Calif.) and the proteins separated at 200 V for 45 min. The gels then were transferred onto nitrocellulose at 25 V for 1.5 h. The blots were blocked with 5% non-fat dry milk in 10 mM Tris, pH 8.0 containing 150 mM NaCl for 1 h and washed twice for 15 min in large volumes of TBST (10 mM Tris, pH 8.0, 150 mM NaCl and 0.05% Tween 20). […] Three final TBST washes of 20 min duration each were performed before the samples were detected by chemiluminescence and exposed to film, as per the manufacturer's instructions (Amersham Life Science Inc., Arlington Heights, Ill.). […] Densitometric quantification of blots was undertaken by using a […] and NIH-IMAGE (version 4.1).
SH-SY5Y cells were incubated with 5 μM (+)-phenserine or (−) phenserine for 0, 0.5, 1, 2 and 4 hours to determine the effect of the drug on βAPP protein levels. Western blots of cell lysates containing 15 μg of total protein per lane were analyzed. […] Stress activated transcription kinases, p38 and JNK, were not detected in the samples. […]

[7] = in vivo toxicity, i.p. administration to rodents; details: 20 mg/kg
Method: This persisted for an hour and is related to central cholinergic overdrive. […] Animals were incapacitated at 20 mg/kg (N=3 per dose group), and 2 were killed when moribund.

[8] = tested on: cholinesterase; details: Greig et al., 1995; Brossi et al., 1996; cited from earlier work
[9] = tested on: Aβ1-40; assay: Aβ1-40 levels in cerebral cortex of transgenic mice, ELISA; assay type: in vivo; details: formic acid extraction, 3 weeks daily
Method: (§3) Greater reductions could be achieved, but, as previously reported, doses of >5 mg/kg produce cholinergic side effects for the (−)-enantiomer but not for the (+)-enantiomer.
(§4) Samples of cerebral cortex from the transgenic mice then were analyzed for β amyloid peptide (Aβ) levels. Specifically, Aβ1-40 and Aβ1-42 levels, following formic acid extraction, were determined by ELISA assay (Suzuki et al., 1994).

[10] = tested on: Aβ1-42; assay: Aβ1-42 levels in cerebral cortex of transgenic mice, ELISA; assay type: in vivo; details: formic acid extraction, 3 weeks daily
Method: as §3, §4

[11] = tested on: SH-SY-5Y Cells; assay: MTS toxicity assay in SHSY5Y cells; assay type: cell-based, human
[12] = tested on: secreted APP; assay: ELISA for secreted APP in SHSY5Y cells; assay type: cell-based, human; details: 16 hours

CC(C)c1ccc(NC(=O)Oc2ccc3c(c2)[C@]2(C)CCN(C)[C@@H]2N3C)cc1 [(−)-cymserine]
anticholinesterase activity / action [1]: possessed anticholinesterase action
Aβ peptide levels [2]: also reduced
toxicity by cell number and viability (LDH measurement) ([3]; SK-N-SH): no toxicity
βAPP protein levels ([4]; cymserine and analogs (FIG. 7)): reduced βAPP protein levels

CC(C)c1ccc(NC(=O)Oc2ccc3c(c2)[C@]2(C)CCNC2N3)cc1 (single isomer, unassigned; (-)) [(−)-N^1,N^8-bisnorcymserine]
Aβ peptide levels [2]: also reduced
toxicity by cell number and viability (LDH measurement) ([3]; SK-N-SH): no toxicity
toxicity at higher concentrations [3]: toxic
βAPP protein levels ([4]; cymserine and analogs (FIG. 7)): reduced βAPP protein levels

CN1CCC2(C)c3cc(OC(=O)Nc4ccccc4)ccc3N(C)C12 (single isomer, unassigned; (+)) [(+)-phenserine, (+)-Phenserine]
anticholinesterase activity / action [1]: devoid of anticholinesterase activity
total Aβ peptide levels ([2]; 16 hours (FIG. 5)): reduced
toxicity by cell number and viability (LDH levels) ([3]; SK-N-SH, 16 hours (FIG. 5)): not associated with toxicity
βAPP levels in the cell lysates [5]: slowly decreased at each time point
ERK½ (phosphorylated) detection [6]: peaked at the 30 minute to 1 hour period
BAPP protein levels ([4]; 16 hours (FIG. 5)): reduced
clinical signs [7]: without clinical symptoms and appeared normal
anti-cholinesterase activity [8]: no anti-cholinesterase activity

CC(C)c1ccc(NC(=O)Oc2ccc3c(c2)[C@@]2(C)CCN(C)[C@H]2N3C)cc1 [(+)-cymserine, (+)-Cymserine]
anticholinesterase activity / action [1]: devoid of it
Aβ peptide levels [2]: also reduced
toxicity by cell number and viability (LDH measurement) ([3]; SK-N-SH): no toxicity
βAPP protein levels ([4]; cymserine and analogs (FIG. 7)): reduced βAPP protein levels

CNC(=O)Oc1ccc2c(c1)[C@]1(C)CCN(C)[C@@H]1N2C [(−)-physostigmine, reference compound]
total Aβ peptide levels ([2]; 50 μM): no reduction or change
βAPP protein levels ([4]; 50 μM): no reduction or change

CC(C)c1ccc(NC(=O)Oc2ccc3c(c2)[C@]2(C)CCN(CCc4ccccc4)[C@@H]2N3C)cc1 [(−)-N^1-phenethylcymserine]
Aβ peptide levels [2]: also reduced
reduction of Aβ1-40 levels [9]: 54%
toxicity by cell number and viability (LDH measurement) ([3]; SK-N-SH): no toxicity
toxicity at higher concentrations [3]: toxic
βAPP protein levels ([4]; cymserine and analogs (FIG. 7)): reduced βAPP protein levels
reduction of Aβ1-42 levels [10]: 47%

COc1ccc2c(c1)C1(C)CCSC1N2C (stereo not shown) [MES 9301]
APP Toxicity SH-SY-5Y Cells (MTS assay) ([11]; Dose 2 uM): 99.15 % vehicle control
APP Toxicity SH-SY-5Y Cells (MTS assay) ([11]; Dose 6 uM): 97.35 % vehicle control
APP Toxicity SH-SY-5Y Cells (MTS assay) ([11]; Dose 20 uM): 95.9 % vehicle control
APP Secretion by SH-SY-5Y Cells ([12]; Dose 2 uM): 108.45 % vehicle control
APP Secretion by SH-SY-5Y Cells ([12]; Dose 6 uM): 106.1 % vehicle control
APP Secretion by SH-SY-5Y Cells ([12]; Dose 20 uM): 111.15 % vehicle control

COc1ccc2c(c1)C(O)(c1ccccc1)C(=O)N2C (stereo not shown) [MES 9319]
APP Toxicity SH-SY-5Y Cells (MTS assay) ([11]; Dose 2 uM): 99.8 % vehicle control
APP Toxicity SH-SY-5Y Cells (MTS assay) ([11]; Dose 6 uM): 101.05 % vehicle control
APP Toxicity SH-SY-5Y Cells (MTS assay) ([11]; Dose 20 uM): 102.7 % vehicle control
APP Secretion by SH-SY-5Y Cells ([12]; Dose 2 uM): 108.95 % vehicle control
APP Secretion by SH-SY-5Y Cells ([12]; Dose 6 uM): 114.1 % vehicle control
APP Secretion by SH-SY-5Y Cells ([12]; Dose 20 uM): 112.8 % vehicle control

COc1ccc2c(c1)[C@@]1(C)CC[N+](C)(C)C1N2Cc1ccccc1.[I-] (stereo partly shown) [MES 9234]
APP Toxicity SH-SY-5Y Cells (MTS assay) ([11]; Dose 2 uM): 102.55 % vehicle control
APP Toxicity SH-SY-5Y Cells (MTS assay) ([11]; Dose 6 uM): 99.75 % vehicle control
APP Toxicity SH-SY-5Y Cells (MTS assay) ([11]; Dose 20 uM): 99.3 % vehicle control
APP Secretion by SH-SY-5Y Cells ([12]; Dose 2 uM): 106.4 % vehicle control
APP Secretion by SH-SY-5Y Cells ([12]; Dose 6 uM): 96.5 % vehicle control
APP Secretion by SH-SY-5Y Cells ([12]; Dose 20 uM): 98.8 % vehicle control

CN(C)CC[C@]1(C)C(=O)N(C)c2ccc(O)cc21 [MES 9311]
APP Toxicity SH-SY-5Y Cells (MTS assay) ([11]; Dose 2 uM): 101.1 % vehicle control
APP Toxicity SH-SY-5Y Cells (MTS assay) ([11]; Dose 6 uM): 101.25 % vehicle control
APP Toxicity SH-SY-5Y Cells (MTS assay) ([11]; Dose 20 uM): 99.55 % vehicle control
APP Secretion by SH-SY-5Y Cells ([12]; Dose 2 uM): 102.45 % vehicle control
APP Secretion by SH-SY-5Y Cells ([12]; Dose 6 uM): 103.05 % vehicle control
APP Secretion by SH-SY-5Y Cells ([12]; Dose 20 uM): 102.7 % vehicle control
